Data from ChEMBL document CHEMBL1201862, “PubChem BioAssay data set” (2004).
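1) Cells in 96-well plates. 2) Compound, 48 h, 5 concentrations. 3) Linear interpolation between surrounding doses. 4) Unreached endpoint = highest concentration. At the GI50, growth is halved.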 The source made the active and inactive calls. Rule as the data show it: active = GI50 up to about 1.1 µM and inactive = higher.

Tests used:
Assay in all cases: DTP human tumour cell line panel, 48 h
DMS-114 = tested on: DMS-114
DMS-273 = tested on: DMS-273
KM-20L2 = tested on: KM-20L2
LXFL 529 = tested on: LXFL 529
XF498 = tested on: XF498
HOP-18 = tested on: HOP-18
M19-MEL = tested on: M19-MEL
SNB-78 = tested on: SNB-78
RXF 631 = tested on: RXF 631

Measured: GI50

COc1ccc(CC(=O)NCCc2ccc(OC)c(OC)c2)cc1Br
inactive: DMS-114 > 100 µM | DMS-273 > 100 µM | KM-20L2 > 100 µM | LXFL 529 > 100 µM | XF498 38.7 µM

Clc1ccc(-c2c(C3=NCCN3)nnn2-c2ccccc2)cc1
inactive: DMS-114 > 100 µM | DMS-273 > 100 µM | HOP-18 > 100 µM | KM-20L2 85.3 µM | LXFL 529 > 100 µM | M19-MEL > 100 µM | SNB-78 > 100 µM | XF498 > 100 µM

CCC(=O)CCC1=Nc2nnc(CCCCc3nnc4n3C(=O)C(CCC(=O)CC)=N4)n2C1=O
inactive: DMS-114 > 100 µM | DMS-273 > 100 µM | KM-20L2 > 100 µM | LXFL 529 > 100 µM | M19-MEL > 100 µM | XF498 > 100 µM

Cc1cccc(NC2=NC(=O)C(CC(=O)Nc3cccc(C)c3C)S2)c1 (centres undefined)
inactive: DMS-114 63.5 µM | KM-20L2 > 100 µM | LXFL 529 > 100 µM | M19-MEL > 100 µM | SNB-78 > 100 µM | XF498 > 100 µM

O=c1c2ccccc2n2cnc3ccc(NCCNCCO)c1c32
inactive: DMS-114 2.04 µM | HOP-18 2.4 µM | KM-20L2 1.41 µM | LXFL 529 2.3 µM | M19-MEL 2.96 µM | RXF 631 1.26 µM | SNB-78 2.06 µM

CC(=O)Oc1c(-c2ccccc2)[nH]c2cc([N+](=O)[O-])c(/C(Cl)=C/c3ccccc3)cc12
inactive: DMS-114 2.17 µM | KM-20L2 3.41 µM | LXFL 529 3.9 µM | M19-MEL 3.31 µM | SNB-78 3.85 µM | XF498 4.36 µM

C=CCC1(CN(C)C)CC/C(=C\c2ccc(OC)cc2)C1=O (centres undefined)
inactive: DMS-114 37.7 µM | DMS-273 > 100 µM | HOP-18 > 100 µM | KM-20L2 46.2 µM | LXFL 529 47.2 µM | M19-MEL 59.8 µM | RXF 631 25 µM | SNB-78 > 100 µM

c1ccc(C2SCc3nc4ccccc4n32)cc1 (centres undefined)
inactive: DMS-114 19 µM | DMS-273 33.7 µM | HOP-18 4.26 µM | KM-20L2 47.6 µM | M19-MEL 41.7 µM | SNB-78 95.5 µM | XF498 20.7 µM

O=C1C2=C(c3ccccc31)C(c1ccccc1Cl)N1C(=O)CSC1=N2 (centres undefined)
inactive: DMS-114 53.8 µM | DMS-273 > 100 µM | KM-20L2 > 100 µM | LXFL 529 74.3 µM | M19-MEL > 100 µM | RXF 631 > 100 µM | XF498 64 µM

N#CCCN(CCC#N)c1ccc(/C=C(/NC(=O)c2cc([N+](=O)[O-])ccc2Cl)C(=O)NN)cc1
inactive: DMS-273 > 100 µM | HOP-18 > 100 µM | KM-20L2 > 100 µM | LXFL 529 54 µM | M19-MEL > 100 µM | SNB-78 > 100 µM

COc1ccc(/C=C2\CCC(CN3CCOCC3)C2=O)cc1 (centres undefined)
inactive: DMS-114 2.72 µM | HOP-18 5.78 µM | KM-20L2 6.3 µM | LXFL 529 1.59 µM | M19-MEL 4.31 µM | RXF 631 6.52 µM | SNB-78 4.86 µM | XF498 3.56 µM

C#CC[N+](CCO)(CCO)CCCCCCCCCCCCCCCCCC
inactive: DMS-114 10.3 µM | DMS-273 4.9 µM | HOP-18 9.33 µM | KM-20L2 7.1 µM | M19-MEL 9.16 µM | SNB-78 6.53 µM | XF498 4.43 µM

C=C(CN(C)C)C(=O)c1ccc(OC2OC(COC(C)=O)C(OC(C)=O)C(OC(C)=O)C2OC(C)=O)cc1 (centres undefined)
inactive: DMS-114 5.9 µM | DMS-273 6.85 µM | HOP-18 3.54 µM | KM-20L2 17.4 µM | LXFL 529 1.52 µM | RXF 631 14.3 µM | SNB-78 8.93 µM | XF498 1.69 µM
